ChEMBL document CHEMBL4311959, “Discovery of a potent p38α/MAPK14 kinase inhibitor: Synthesis, in vitro/in vivo biological evaluation, and docking studies” (Eur J Med Chem, 2019)

Key:
[1] = target: Receptor-type tyrosine-protein kinase FLT3 (Homo sapiens) (UniProt P36888); assay: Inhibition of human FLT3 at 10 uM using EAIYAAPFAKKK as substrate by [gamma-33P]-ATP assay relative to control
[2] = target: Receptor tyrosine-protein kinase erbB-4 (Homo sapiens) (UniProt Q15303); assay: Inhibition of human ERBB4 at 10 uM using poly[Glu:Tyr] (4:1) as substrate by [gamma-33P]-ATP assay relative to control
[3] = target: Aurora kinase A (Homo sapiens) (UniProt O14965); assay: Inhibition of human Aurora A at 10 uM using [H-LRRASLG] as substrate by [gamma-33P]-ATP assay relative to control
[4] = target: Receptor tyrosine-protein kinase erbB-2 (Homo sapiens) (UniProt P04626); assay: Inhibition of human ERBB2 at 10 uM using poly[Glu:Tyr] (4:1) as substrate by [gamma-33P]-ATP assay relative to control
[5] = target: Mast/stem cell growth factor receptor Kit (Homo sapiens) (UniProt P10721); assay: Inhibition of human c-KIT at 10 uM using poly[Glu:Tyr] (4:1) as substrate by [gamma-33P]-ATP assay relative to control
[6] = target: Mitogen-activated protein kinase 3 (Homo sapiens) (UniProt P27361); assay: Inhibition of human ERK1 at 10 uM using MBP as substrate by [gamma-33P]-ATP assay relative to control
Sequence of Mitogen-activated protein kinase 3 (Homo sapiens) (P27361 whole entry): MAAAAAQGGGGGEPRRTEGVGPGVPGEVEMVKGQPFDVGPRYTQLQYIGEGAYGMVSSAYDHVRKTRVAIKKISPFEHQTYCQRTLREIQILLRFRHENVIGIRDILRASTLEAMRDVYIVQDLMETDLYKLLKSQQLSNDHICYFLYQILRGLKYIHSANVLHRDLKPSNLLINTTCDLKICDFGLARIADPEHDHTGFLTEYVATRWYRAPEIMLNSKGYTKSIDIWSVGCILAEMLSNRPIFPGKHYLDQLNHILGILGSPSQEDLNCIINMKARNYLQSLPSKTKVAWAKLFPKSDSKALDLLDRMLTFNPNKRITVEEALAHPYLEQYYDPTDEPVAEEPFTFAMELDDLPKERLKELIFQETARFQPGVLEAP

[7] = target: Mitogen-activated protein kinase 8 (Homo sapiens) (UniProt P45983); assay: Inhibition of human JNK1 at 10 uM using ATF2 as substrate by [gamma-33P]-ATP assay relative to control
[8] = AUClast in Sprague-Dawley rat at 10 mg/kg, iv measured for each 30 mins by LC-MS/MS analysis; format: ADME, organism-based; design: dose 10 mg/kg, route intravenous, time 0 - last; details: in vivo
[9] = target: Macrophage colony-stimulating factor 1 receptor (Homo sapiens) (UniProt P07333); assay: Inhibition of human FMS at 10 uM using poly[Glu:Tyr] (4:1) as substrate by [gamma-33P]-ATP assay relative to control
Sequence of Macrophage colony-stimulating factor 1 receptor (Homo sapiens) (P07333 whole entry): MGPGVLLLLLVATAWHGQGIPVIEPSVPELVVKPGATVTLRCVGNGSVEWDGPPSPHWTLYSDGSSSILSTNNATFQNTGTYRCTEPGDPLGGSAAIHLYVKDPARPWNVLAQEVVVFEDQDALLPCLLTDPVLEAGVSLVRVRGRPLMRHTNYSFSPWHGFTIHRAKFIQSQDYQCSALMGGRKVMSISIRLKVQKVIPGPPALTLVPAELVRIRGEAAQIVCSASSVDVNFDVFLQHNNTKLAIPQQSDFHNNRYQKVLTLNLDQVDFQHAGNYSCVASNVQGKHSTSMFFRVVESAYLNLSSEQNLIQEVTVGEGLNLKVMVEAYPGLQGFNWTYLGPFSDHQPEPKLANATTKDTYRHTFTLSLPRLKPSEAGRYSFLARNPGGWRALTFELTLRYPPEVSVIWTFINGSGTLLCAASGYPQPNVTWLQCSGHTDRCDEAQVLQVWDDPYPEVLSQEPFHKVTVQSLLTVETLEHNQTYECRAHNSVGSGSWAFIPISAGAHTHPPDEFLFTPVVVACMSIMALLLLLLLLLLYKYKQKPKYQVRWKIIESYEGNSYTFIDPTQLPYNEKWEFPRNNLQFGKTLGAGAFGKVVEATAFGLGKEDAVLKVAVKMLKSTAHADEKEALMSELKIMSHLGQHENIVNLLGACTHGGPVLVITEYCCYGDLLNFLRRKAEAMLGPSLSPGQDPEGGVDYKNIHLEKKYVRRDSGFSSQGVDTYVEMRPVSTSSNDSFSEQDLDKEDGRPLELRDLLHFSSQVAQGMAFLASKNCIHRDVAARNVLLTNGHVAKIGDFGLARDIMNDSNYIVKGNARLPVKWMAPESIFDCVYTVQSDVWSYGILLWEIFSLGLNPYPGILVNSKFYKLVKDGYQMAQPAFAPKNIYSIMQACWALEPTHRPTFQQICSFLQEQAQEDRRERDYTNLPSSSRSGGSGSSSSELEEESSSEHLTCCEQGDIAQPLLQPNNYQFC

[10] = Stability in rat plasma assessed as remaining compound at 10 uM incubated for 120 mins by LC-MS analysis; format: ADME, cell-free; details: read-out: Stability
[11] = target: Dual specificity mitogen-activated protein kinase kinase 6 (Homo sapiens) (UniProt P52564); assay: Inhibition of human MKK6 at 10 uM using p38alpha as substrate by [gamma-33P]-ATP assay relative to control
Homo sapiens [12] = species on record: Homo sapiens; assay: Selectivity index, ratio of IC50 for human ERG to IC50 for human p38alpha
[13] = target: Hepatocyte growth factor receptor (Homo sapiens, UniProt P08581); assay: Inhibition of human c-MET at 10 uM using KKKSPGEYVNIEFG as substrate by [gamma-33P]-ATP assay relative to control
[14] = AUCinfinity in Sprague-Dawley rat at 10 mg/kg, po measured for each 30 mins by LC-MS/MS analysis; format: ADME, organism-based; design: dose 10 mg/kg, time infinity, route oral; details: in vivo
[15] = target: RAC-alpha serine/threonine-protein kinase (Homo sapiens) (UniProt P31749); assay: Inhibition of human AKT1 at 10 uM using KGSGSGRPRTSSFAEG as substrate by [gamma-33P]-ATP assay relative to control
Sequence of RAC-alpha serine/threonine-protein kinase (Homo sapiens) (P31749 whole entry): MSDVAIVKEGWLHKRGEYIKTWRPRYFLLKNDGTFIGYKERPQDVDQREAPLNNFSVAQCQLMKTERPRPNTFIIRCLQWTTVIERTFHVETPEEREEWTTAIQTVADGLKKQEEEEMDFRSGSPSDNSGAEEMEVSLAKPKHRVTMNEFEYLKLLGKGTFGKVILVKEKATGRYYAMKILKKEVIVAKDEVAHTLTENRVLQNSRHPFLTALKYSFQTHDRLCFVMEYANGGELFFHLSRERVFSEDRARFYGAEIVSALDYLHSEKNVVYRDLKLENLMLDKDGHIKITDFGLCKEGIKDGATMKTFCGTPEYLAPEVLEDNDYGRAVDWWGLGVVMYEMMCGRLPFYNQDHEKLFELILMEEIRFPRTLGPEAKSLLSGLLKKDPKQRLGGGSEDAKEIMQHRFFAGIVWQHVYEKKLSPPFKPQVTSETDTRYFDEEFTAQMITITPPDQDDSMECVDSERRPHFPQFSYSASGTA

[16] = Tmax in Sprague-Dawley rat at 10 mg/kg, po measured for each 30 mins by LC-MS/MS analysis; format: ADME, organism-based; details: in vivo
[17] = target: Serine/threonine-protein kinase B-raf (Homo sapiens, UniProt P15056, V600E); assay: Inhibition of human BRAF V600E mutant using MEK1 as substrate by […]-ATP assay
Sequence of Serine/threonine-protein kinase B-raf (P15056 2-766 V600E limits assumed): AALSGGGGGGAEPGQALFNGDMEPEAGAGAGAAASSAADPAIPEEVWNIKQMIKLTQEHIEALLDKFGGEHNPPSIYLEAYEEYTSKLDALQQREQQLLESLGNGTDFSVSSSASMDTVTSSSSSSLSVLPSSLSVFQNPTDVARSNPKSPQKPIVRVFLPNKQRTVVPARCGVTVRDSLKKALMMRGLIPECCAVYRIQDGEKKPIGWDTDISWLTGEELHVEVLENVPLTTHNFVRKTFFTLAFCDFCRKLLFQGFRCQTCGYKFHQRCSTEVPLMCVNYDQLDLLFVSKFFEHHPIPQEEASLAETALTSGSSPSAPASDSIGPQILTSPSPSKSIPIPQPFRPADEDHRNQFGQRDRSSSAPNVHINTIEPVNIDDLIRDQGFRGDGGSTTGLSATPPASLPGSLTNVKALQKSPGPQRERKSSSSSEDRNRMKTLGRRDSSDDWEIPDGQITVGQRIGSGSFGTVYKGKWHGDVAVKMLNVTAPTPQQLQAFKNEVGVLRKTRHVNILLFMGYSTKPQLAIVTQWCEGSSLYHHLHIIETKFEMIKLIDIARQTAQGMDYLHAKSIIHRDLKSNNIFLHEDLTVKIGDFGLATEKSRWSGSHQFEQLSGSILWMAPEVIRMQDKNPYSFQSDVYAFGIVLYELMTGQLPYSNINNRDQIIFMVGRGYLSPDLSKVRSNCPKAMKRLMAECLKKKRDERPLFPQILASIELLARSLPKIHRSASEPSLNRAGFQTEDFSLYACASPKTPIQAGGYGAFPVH

[18] = AUClast in Sprague-Dawley rat at 10 mg/kg, po measured for each 30 mins by LC-MS/MS analysis; format: ADME, organism-based; design: dose 10 mg/kg, route oral, time 0 - last; details: in vivo
[19] = target: Tyrosine-protein kinase JAK2 (Homo sapiens) (UniProt O60674); assay: Inhibition of human JAK2 at 10 uM using poly[Glu:Tyr] (4:1) as substrate by [gamma-33P]-ATP assay relative to control
[20] = target: T1, Mitogen-activated protein kinase 14 (Homo sapiens, UniProt Q16539); assay: Inhibition of human p38alpha using MBP as substrate by [gamma-33P]-ATP assay
T1 sequence (Q16539 whole entry): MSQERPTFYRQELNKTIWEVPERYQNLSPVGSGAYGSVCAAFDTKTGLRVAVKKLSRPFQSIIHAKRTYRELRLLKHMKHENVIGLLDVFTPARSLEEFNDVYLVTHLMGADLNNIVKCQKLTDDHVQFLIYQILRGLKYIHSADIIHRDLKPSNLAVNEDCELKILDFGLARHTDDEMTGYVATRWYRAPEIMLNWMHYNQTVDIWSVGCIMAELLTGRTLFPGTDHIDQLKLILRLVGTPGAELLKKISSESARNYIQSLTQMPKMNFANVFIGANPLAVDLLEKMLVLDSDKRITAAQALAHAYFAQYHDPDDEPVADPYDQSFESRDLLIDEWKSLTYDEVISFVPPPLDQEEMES

[21] = target: Insulin receptor (Homo sapiens) (UniProt P06213); assay: Inhibition of human IR at 10 uM using poly[Glu:Tyr] (4:1) as substrate by [gamma-33P]-ATP assay relative to control
Sequence of Insulin receptor (Homo sapiens) (P06213 28-758 limits assumed): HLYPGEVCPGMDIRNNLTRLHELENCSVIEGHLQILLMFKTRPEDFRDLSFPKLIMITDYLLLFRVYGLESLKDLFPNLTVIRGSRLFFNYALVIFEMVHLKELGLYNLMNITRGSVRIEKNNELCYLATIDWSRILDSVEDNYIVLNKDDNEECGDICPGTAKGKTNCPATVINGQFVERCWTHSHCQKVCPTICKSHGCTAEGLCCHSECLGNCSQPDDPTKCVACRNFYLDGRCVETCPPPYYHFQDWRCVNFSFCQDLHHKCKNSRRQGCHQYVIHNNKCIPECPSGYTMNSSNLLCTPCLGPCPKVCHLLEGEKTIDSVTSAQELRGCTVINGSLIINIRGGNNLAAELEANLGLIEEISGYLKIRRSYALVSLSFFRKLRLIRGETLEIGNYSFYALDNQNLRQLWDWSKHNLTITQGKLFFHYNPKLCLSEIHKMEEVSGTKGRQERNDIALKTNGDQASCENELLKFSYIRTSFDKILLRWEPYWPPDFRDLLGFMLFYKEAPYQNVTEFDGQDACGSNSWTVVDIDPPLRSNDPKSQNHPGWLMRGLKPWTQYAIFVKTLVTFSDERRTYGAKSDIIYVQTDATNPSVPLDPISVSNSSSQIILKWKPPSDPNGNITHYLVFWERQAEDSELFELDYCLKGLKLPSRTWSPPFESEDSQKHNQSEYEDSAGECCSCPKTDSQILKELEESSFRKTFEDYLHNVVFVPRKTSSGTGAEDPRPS
Sequence of Insulin receptor (Homo sapiens) (P06213 763-1382 limits assumed): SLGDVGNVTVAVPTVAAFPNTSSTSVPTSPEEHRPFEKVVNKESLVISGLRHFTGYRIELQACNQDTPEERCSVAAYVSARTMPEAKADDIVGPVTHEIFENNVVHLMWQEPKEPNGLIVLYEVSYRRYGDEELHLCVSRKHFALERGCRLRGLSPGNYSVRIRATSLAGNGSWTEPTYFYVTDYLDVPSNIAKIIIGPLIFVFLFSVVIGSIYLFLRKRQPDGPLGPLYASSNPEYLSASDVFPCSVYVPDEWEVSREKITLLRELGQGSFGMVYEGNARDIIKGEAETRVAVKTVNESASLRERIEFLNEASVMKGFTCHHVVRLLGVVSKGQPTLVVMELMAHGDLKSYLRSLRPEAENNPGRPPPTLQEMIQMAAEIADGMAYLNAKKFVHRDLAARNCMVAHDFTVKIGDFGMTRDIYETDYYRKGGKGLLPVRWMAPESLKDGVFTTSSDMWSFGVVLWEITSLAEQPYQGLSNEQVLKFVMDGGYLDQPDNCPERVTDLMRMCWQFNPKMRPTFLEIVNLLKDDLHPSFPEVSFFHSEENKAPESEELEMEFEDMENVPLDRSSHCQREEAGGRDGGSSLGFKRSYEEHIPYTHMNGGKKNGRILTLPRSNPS

[22] = target: T2, RAF proto-oncogene serine/threonine-protein kinase (Homo sapiens, UniProt P04049); assay: Inhibition of human RAF1 using MEK1 as substrate by [gamma-33P]-ATP assay
T2 sequence (P04049 whole entry): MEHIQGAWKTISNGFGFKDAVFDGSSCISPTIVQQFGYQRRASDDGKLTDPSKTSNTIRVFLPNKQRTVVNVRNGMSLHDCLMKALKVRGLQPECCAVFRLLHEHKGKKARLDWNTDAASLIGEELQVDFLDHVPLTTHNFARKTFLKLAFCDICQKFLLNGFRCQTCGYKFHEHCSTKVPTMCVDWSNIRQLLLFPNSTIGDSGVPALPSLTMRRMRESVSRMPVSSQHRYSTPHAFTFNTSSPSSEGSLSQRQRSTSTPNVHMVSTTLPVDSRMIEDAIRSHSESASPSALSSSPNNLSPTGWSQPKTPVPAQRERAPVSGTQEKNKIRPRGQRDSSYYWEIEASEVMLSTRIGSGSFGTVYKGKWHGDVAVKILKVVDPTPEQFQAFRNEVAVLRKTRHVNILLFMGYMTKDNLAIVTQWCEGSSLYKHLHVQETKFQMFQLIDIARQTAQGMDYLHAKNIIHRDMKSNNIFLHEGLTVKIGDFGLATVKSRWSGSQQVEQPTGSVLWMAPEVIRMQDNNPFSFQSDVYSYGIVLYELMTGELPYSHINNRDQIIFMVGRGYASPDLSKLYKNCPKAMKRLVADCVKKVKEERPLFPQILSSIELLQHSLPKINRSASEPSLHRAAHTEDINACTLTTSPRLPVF

THP-1 = assay: Inhibition of LPS-induced TNFalpha production in human THP1 cells incubated for 1 hr followed by LPS stimulation and measured after 4 hrs by TR-FRET method; format: functional, cell-based
[23] = target: DNA-dependent protein kinase catalytic subunit (Homo sapiens) (UniProt P78527); assay: Inhibition of human DNAPK at 10 uM using EPPLSQEAFADLWKK as substrate by […]-ATP assay relative to control
[24] = target: T2, RAF proto-oncogene serine/threonine-protein kinase; assay: Inhibition of human RAF1 at 10 uM using MEK1 (K97R) as substrate by [gamma-33P]-ATP assay relative to control
[25] = Clearance in Sprague-Dawley rat at 10 mg/kg, iv measured for each 30 mins by LC-MS/MS analysis; format: ADME, organism-based; details: in vivo
[26] = Oral bioavailability in Sprague-Dawley rat at 10 mg/kg measured for each 30 mins by LC-MS/MS analysis; format: ADME, organism-based; details: in vivo
Homo sapiens [27] = species on record: Homo sapiens; assay: Selectivity index, ratio of IC50 for human c-MET to IC50 for human p38alpha
Homo sapiens [28] = species on record: Homo sapiens; assay: Selectivity index, ratio of IC50 for human RAF1 to IC50 for human p38alpha
[29] = target: Fibroblast growth factor receptor 1 (Homo sapiens) (UniProt P11362); assay: Inhibition of human FGFR1 at 10 uM using KKKSPGEYVNIEFG as substrate by [gamma-33P]-ATP assay relative to control
[30] = target: Vascular endothelial growth factor receptor 2 (Homo sapiens) (UniProt P35968); assay: Inhibition of human KDR at 10 uM using poly[Glu:Tyr] (4:1) as substrate by [gamma-33P]-ATP assay relative to control
[31] = target: T1, Mitogen-activated protein kinase 14; assay: Inhibition of recombinant Nanoluc-tagged p38alpha (unknown origin) expressed in HEK293 cells incubated for 2 to 3 mins by NanoBRET assay; format: cell-based
[32] = test system: Serine/threonine-protein kinase B-raf (Homo sapiens), P15056 [V600E]; assay: Inhibition of human BRAF V600E mutant at 10 uM using MEK1 (K97R) as substrate by [gamma-33P]-ATP assay relative to control
[33] = target: Tyrosine-protein kinase Tec (Homo sapiens) (UniProt P42680); assay: Inhibition of human TEC at 10 uM using poly[Glu:Tyr] (4:1) as substrate by [gamma-33P]-ATP assay relative to control

`COc1ccc(-c2nn(-c3cccc(NC(=O)c4cccc(C(F)(F)F)c4)c3)cc2-c2ccncc2)cc1Cl` showed an inhibition [1] of -5.65%, an inhibition [2] of 26.9% and an inhibition [3] of 3.1%. It also gave an inhibition [4] of 20.4%, an inhibition [5] of 5.66% and an inhibition [6] of -1.3%. The inhibition [7] was 28.2%, the AUC(0-t) at 0.5 h [8] was 1450 ng·h/mL and the inhibition [9] was 19%. It also gave a remaining at 2 h, 10 µM [10] of 100%, an inhibition [11] of 29.5% and a Ratio IC50 (Homo sapiens [12]) of 23.8. It also gave an inhibition [13] of 77.7%, an AUC(0-inf) [14] of 169 ng·h/mL and an inhibition [15] of 7.06%. It also gave a Tmax [16] of 1.2 h, an IC50 [17] of 158 nM and an AUC(0-t) at 0.5 h [18] of 164 ng·h/mL. For the same compound, the inhibition [19] was -9.88%, the IC50 [20] was 22 nM and the inhibition [21] was -0.36%. It also gave an IC50 [22] of 336 nM, an IC50 (THP-1) of 58 nM and an inhibition [23] of -1.83%. For the same compound, the inhibition [24] was 90.5%, the clearance [25] was 90 mL/min/kg and the bioavailability [26] was 11.3%. For the same compound, the Ratio IC50 (Homo sapiens [27]) was 455, the Ratio IC50 (Homo sapiens [28]) was 15.3 and the inhibition [29] was 24.4%. For the same compound, the inhibition [30] was 13.2%, the EC50 [31] was 520 nM and the inhibition [32] was 90.8%. For the same compound, the inhibition [33] was -3.79%.
